Measurements as given in patent publication US11236084B2, “Substituted azaindoline derivatives as NIK inhibitors” (Janssen Pharmaceutica NV, priority 2017, dated 2022).
Read-outs that look alike come from different tables or passages of the source.

Key:
[1] = molecular target: T1, recombinant human NF-kappaB-inducing kinase (NIK/MAP3K14) (Homo sapiens, UniProt Q99558); experiment: Biological Assay A: inhibition of recombinant human NF-kappaB-inducing kinase (NIK/MAP3K14) activity (MBP phosphorylation, Mesoscale); conditions: MSD MBP; averaged over all measurements on all batches; read-out: Assay A Biochemical (MSD MBP) IC50
Method: Pharmacological Part Biological Assay A Inhibition of Recombinant Human NF-kappaB-Inducing Kinase (NIK/MAP3K14) Activity
Assay buffer was 50 mM Tris pH 7.5 containing 1 mM EGTA (ethylene glycol tetraacetic acid), 1 mM DTT (dithiothreitol), 0.1 mM Na3VO4, 5 mM MgCl2, 0.01% Tween® 20. Assays were carried out in 384 well Mesoscale high binding plates which had been coated with myelin basic protein (MBP) and blocked with bovine serum albumin to prevent non-specific protein binding. All compounds tested were dissolved in dimethyl sulfoxide (DMSO) and further dilutions were made in assay buffer. Final DMSO concentration was 1% (v/v) in assays. Incubations consisted of compound (1% DMSO in control and blank wells), 25 μM […] (ATP), and 10 nM NIK/MAP3K14 substituting enzyme with buffer in the blank wells. Incubations were carried out for 1 h at 25° C. and were followed by washing and sequential incubation with rabbit anti-phospho-MBP and anti-rabbit Ig Sulfotag antibody before reading bound Sulfotag on a Mesoscale Discovery. Signal obtained in the wells containing blank samples was subtracted from all other wells and […] were determined by fitting a sigmoidal curve to % inhibition of control versus Log10 compound concentration.
(§1) Data for the compounds of the invention in the above assays are provided in Table A (the values in Table are averaged values over all measurements on all batches of a compound; values as IC50 (nM)). (‘n.c.’ means not calculated: ‘Co.’ means compound)

[2] = tested on: P-IKKα levels in L363 (NIK translocated multiple myeloma) cells; experiment: Biological Assay C: effect of compounds on P-IKKα levels in L363 (NIK translocated multiple myeloma) cells, performed at 2 locations; format: cell-based, human; conditions: averaged values
Method: Effect of Compounds on P-IKKα Levels in L363 (NIK Translocated Multiple Myeloma) Cells
All compounds tested were dissolved in DMSO and further dilutions were made in culture medium. Final DMSO concentration was 1% (v/v) in cell assays. The human L363 cells (ATCC) were cultured in RPMI 1640 medium supplemented with GlutaMax and 10% fetal calf serum (PAA). Cells were routinely maintained at densities of 0.2×10^6 cells per ml-1×10^6 cells per ml at 37° C. in a humidified 5% CO2 atmosphere. Cells were passaged twice a week splitting back to obtain the low density. Cells were seeded in 96 well plates (Nunc 167008) at 2×10^6 per ml media in a volume of 75 μl per well plus 25 μl […] recombinant human B-cell activating factor (BAFF/BLyS/TNFSF13B). Seeded cells were incubated at 37° C. in a humidified 5% CO2 atmosphere for 24 hr. Drugs and/or solvents were added (20 μl) to a final volume of 120 μl. Following 2 hr treatment plates were removed from the incubator and cell lysis was achieved by the addition of 30 μl 5× lysis buffer followed by shaking on a plate shaker at 4° C. for 10 min. At the end of this incubation lysed cells were centrifuged at 800×g for 20 min at 4° C. and the lysate was assessed for P-IKKα levels by sandwich immuno-assay carried out in anti-rabbit antibody coated Mesoscale plates. Within an experiment, the results for each treatment were the mean of 2 replicate wells. For initial screening purposes, compounds were tested using an 8 point dilution curve (serial 1:3 dilutions). For each experiment, controls (containing MG132 and BAFF but no test drug) and a blank incubation (containing MG132 and BAFF and 1 μM ADS125117, a test concentration known to give full inhibition) were run in parallel. The blank incubation value was subtracted from all control and sample values. To determine the IC50 a sigmoidal curve was fitted to the plot of % inhibition of control P-IKKα levels versus Log10 compound concentration.
Assay C was performed at 2 different locations.
as §1

[3] = molecular target: T1, recombinant human NF-kappaB-inducing kinase (NIK/MAP3K14); experiment: Biological Assay B: inhibition of auto-phosphorylation of recombinant human NIK/MAP3K14 (AlphaScreen), performed at 2 locations; format: biochemical; conditions: averaged values
In short: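 GST-tagged NIK (0.2 nM) auto-phosphorylation with 25 microM ATP in 50 mM Tris pH 7.5, 5 mM MgCl2, 1% DMSO, 1 h at 25° C. Anti-phospho-IKK Ser176/180 AlphaScreen readout; blank-subtracted IC50 from sigmoidal fit. Run at two sites.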

[4] = Homo sapiens, L-363, location 2, L363 cells, P-IKKα levels, read-out: Assay C location 2 IC50
[5] = location 1, AlphaScreen auto-phosphorylation, read-out: Assay B location 1 IC50
[6] = Homo sapiens, L-363, location 1, L363 cells, P-IKKα levels, read-out: Assay C location 1 IC50
[7] = location 2, AlphaScreen auto-phosphorylation, read-out: Assay B location 2 IC50

T1 sequence (Q99558 whole entry): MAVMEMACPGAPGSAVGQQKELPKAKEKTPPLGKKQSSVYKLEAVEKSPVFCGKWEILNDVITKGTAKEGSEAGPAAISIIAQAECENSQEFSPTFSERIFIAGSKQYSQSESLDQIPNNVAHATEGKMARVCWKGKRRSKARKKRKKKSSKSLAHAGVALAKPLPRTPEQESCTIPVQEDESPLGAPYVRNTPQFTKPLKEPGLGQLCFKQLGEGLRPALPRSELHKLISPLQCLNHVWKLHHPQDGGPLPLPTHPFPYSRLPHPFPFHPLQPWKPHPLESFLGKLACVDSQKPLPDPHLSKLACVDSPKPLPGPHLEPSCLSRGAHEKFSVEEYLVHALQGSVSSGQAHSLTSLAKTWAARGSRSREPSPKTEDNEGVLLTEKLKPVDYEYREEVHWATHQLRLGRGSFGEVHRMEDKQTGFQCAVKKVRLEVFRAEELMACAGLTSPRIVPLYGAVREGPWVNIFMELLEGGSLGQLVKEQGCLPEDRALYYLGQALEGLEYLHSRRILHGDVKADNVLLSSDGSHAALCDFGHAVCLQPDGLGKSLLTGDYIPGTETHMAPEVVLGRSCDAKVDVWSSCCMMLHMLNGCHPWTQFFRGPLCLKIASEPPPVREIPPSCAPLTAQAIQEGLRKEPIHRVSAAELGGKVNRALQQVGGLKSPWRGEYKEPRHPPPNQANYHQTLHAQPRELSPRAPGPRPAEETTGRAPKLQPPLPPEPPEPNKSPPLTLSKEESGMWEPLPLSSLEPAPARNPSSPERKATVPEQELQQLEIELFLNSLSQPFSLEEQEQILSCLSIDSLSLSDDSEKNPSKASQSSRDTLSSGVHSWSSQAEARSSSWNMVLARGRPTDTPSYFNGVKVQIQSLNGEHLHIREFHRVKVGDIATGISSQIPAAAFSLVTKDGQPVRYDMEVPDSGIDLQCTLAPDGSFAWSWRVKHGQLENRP

SMILES	IC50 [1]	IC50 [2, 4]	further results
COC1CCN(C(=O)c2ccc(Nc3nccc(-c4cnc5c(c4)C(C)(CO)CN5)n3)c(C)c2)CC1 (centres unmarked) [Compound 133]	5.8 nM	–	IC50 ([2]; location 2, L363 cells, P-IKKα levels, read-out: Assay C location 2 IC50): 129 nM
COCC(=O)NCc1cccc(Nc2nccc(-c3cnc4c(c3)C(C)(C)CN4)n2)c1C [Compound 66]	10.7 nM	363 nM	–
CC(=O)NCc1ccc(Nc2nccc(-c3cnc4c(c3)C(C)(C)CN4)n2)c(C(F)(F)F)c1 [Compound 67]	45.7 nM	1660 nM	–
CC(=O)NCc1ccc(Nc2nccc(-c3cnc4c(c3)C(C)(C)CN4)n2)c(F)c1 [Compound 83]	35.5 nM	2690 nM	–
COc1c(Nc2nccc(-c3cnc4c(c3)C(C)(C)CN4)n2)cccc1C(=O)N1CCC(O)CC1 [Compound 114]	251 nM	> 10000 nM	–
COc1cc(Nc2nccc(-c3cnc4c(c3)C(C)(C)CN4)n2)c(C)c(C(=O)N2CCOCC2)c1 [Compound 108]	15.1 nM	102 nM	–
Cc1cc(C(=O)N2CCS(=O)(=O)CC2)ccc1Nc1nccc(-c2cnc3c(c2)C(C)(C)CN3)n1 [Compound 100]	6.6 nM	174 nM	–
CC(=O)NC(C)c1cccc(Nc2nccc(-c3cnc4c(c3)C(C)(C)CN4)n2)c1 (centres unmarked) [Compound 96]	13.5 nM	~6310 nM	–
COc1cc(Nc2nccc(-c3cnc4c(c3)C(C)(C)CN4)n2)c(C)c(C(=O)N2CCC(O)CC2)c1 [Compound 107]	13.5 nM	72.4 nM	–
Cc1cc(C(=O)N2CCC(CCO)CC2)ccc1Nc1nccc(-c2cnc3c(c2)C(C)(C)CN3)n1 [Compound 53]	4.1 nM	174 nM	–
Cc1cc(C(=O)N2CCOCC2)ccc1Nc1nccc(-c2cnc3c(c2)C(C)(C)CN3)n1 [Compound 78]	16.6 nM	> 10000 nM	–
CN1CCC(NC(=O)c2ccc(Nc3nccc(-c4cnc5c(c4)C(C)(C)CN5)n3)c(Cl)c2)CC1 [Compound 103]	155 nM	3090 nM	–
COCCNC(=O)c1cc(OC)cc(Nc2nccc(-c3cnc4c(c3)C(C)(C)CN4)n2)c1C [Compound 106]	15.9 nM	95.5 nM	–
COc1cc(C#N)ccc1Nc1nccc(-c2cnc3c(c2)C(C)(C)CN3)n1 [Compound 116]	309 nM	3160 nM	–
COC1CCN(C(=O)c2ccc(Nc3nccc(-c4cnc5c(c4)C(C)(C)CN5)n3)c(OC(F)F)c2)CC1 [Compound 129]	15.9 nM	229 nM	–
CC(=O)NCc1ccc(Nc2nccc(-c3cnc4c(c3)C(C)(C)CN4)n2)c(OC(F)(F)F)c1 [Compound 77]	56.2 nM	126 nM	–
Cc1cc(C(=O)N2CCC(C#N)CC2)ccc1Nc1nccc(-c2cnc3c(c2)C(C)(C)CN3)n1 [Compound 99]	7.4 nM	144 nM	–
CC(=O)NCc1ccc(Nc2nccc(-c3cnc4c(c3)C(C)(C)CN4)n2)c(Cl)c1 [Compound 72]	6.5 nM	53.7 nM	–
Cc1cc(C#N)ccc1Nc1nccc(-c2cnc3c(c2)C(C)(C)CN3)n1 [Compound 115]	457 nM	–	–
Cc1c(CNC(=O)C(C)C)cccc1Nc1nccc(-c2cnc3c(c2)C(C)(C)CN3)n1 [Compound 65]	24 nM	617 nM	–
CCC(=O)NCc1ccc(Nc2nccc(-c3cnc4c(c3)C(C)(C)CN4)n2)c(C)c1 [Compound 74]	6.8 nM	67.6 nM	–

SMILES	IC50 [1]	IC50 [2, 4]	further results
COc1ccc(S(C)(=O)=O)cc1Nc1nccc(-c2cnc3c(c2)C(C)(C)CN3)n1 [Compound 119]	295 nM	5500 nM	–
COc1cc(Nc2nccc(-c3cnc4c(c3)C(C)(C)CN4)n2)c(C)c(C(=O)NC2CN(C)C2)c1 [Compound 51]	6.9 nM	112 nM	–
CC1(C)CNc2ncc(-c3ccnc(Nc4ccc(C(=O)N5CCC(C#N)CC5)cc4OC(F)F)n3)cc21 [Compound 128]	7.9 nM	191 nM	–
Cc1cc(C(=O)O)ccc1Nc1nccc(-c2cnc3c(c2)C(C)(C)CN3)n1 [Compound 97]	~501 nM	–	IC50 [3, 5]: > 10000 nM
Cc1cc(C(=O)N2CCC(C(C)(C)O)CC2)ccc1Nc1nccc(-c2cnc3c(c2)C(C)(C)CN3)n1 [Compound 98]	13.5 nM	93.3 nM	–
Cc1cc(N2CCOCC2)ccc1Nc1nccc(-c2cnc3c(c2)C(C)(C)CN3)n1 [Compound 117]	162 nM	> 10000 nM	–
COCC(=O)NCc1ccc(Nc2nccc(-c3cnc4c(c3)C(C)(C)CN4)n2)c(C)c1 [Compound 76]	13.5 nM	182 nM	–
CN1CCC(NC(=O)c2ccc(Nc3nccc(-c4cnc5c(c4)C(C)(C)CN5)n3)c(C(F)(F)F)c2)CC1 [Compound 91]	339 nM	> 10000 nM	–
COc1cc(C(=O)NC2CCOCC2)c(Cl)cc1Nc1nccc(-c2cnc3c(c2)C(C)(C)CN3)n1 [Compound 299]	–	–	IC50 [2, 6]: 29.5 nM; IC50 [3, 5]: 3.2 nM; IC50 [3, 7]: 0.9 nM
CC(=O)NCc1ccc(Nc2nccc(-c3cnc4c(c3)C(C)(C)CN4)n2)c(Br)c1 [Compound 63]	8.3 nM	75.9 nM	–
COc1cc(S(C)(=O)=O)c(F)cc1Nc1nccc(-c2cnc3c(c2)C(C)(C)CN3)n1 [Compound 342]	–	–	IC50 ([2]; Homo sapiens, L-363, 2 h, location 1, P-IKKα levels in L363 cells, 2 hr treatment, read-out: Assay C location 1 IC50): 155 nM; IC50 ([3]; location 1, NIK auto-phosphorylation, AlphaScreen, read-out: Assay B location 1 IC50): 7.9 nM; IC50 ([3]; location 2, NIK auto-phosphorylation, AlphaScreen, read-out: Assay B location 2 IC50): 4.6 nM
Cc1cc(C(=O)NC2CCOCC2)ccc1Nc1nccc(-c2cnc3c(c2)C(C)(CCO)CN3)n1 (centres unmarked) [Compound 124]	7.8 nM	2750 nM	–
COc1cc(C(=O)N2CCC(OC)C2)ccc1Nc1nccc(-c2cnc3c(c2)C(C)(CO)CN3)n1 (centres unmarked) [Compound 136]	–	229 nM	IC50 [2, 6]: 355 nM; IC50 [3, 7]: 3.3 nM
COc1cc(C(=O)NC2CCCOCC2)ccc1Nc1nccc(-c2cnc3c(c2)C(C)(CO)CN3)n1 (centres unmarked) [Compound 142]	–	204 nM	IC50 [2, 6]: 309 nM; IC50 [3, 7]: 13.5 nM
COc1cc(N2CCN(C(C)C)CC2)c(Cl)cc1Nc1nccc(-c2cnc3c(c2)C(C)(CO)CN3)n1 (centres unmarked) [Compound 14]	–	–	IC50 [2, 6]: 19.5 nM; IC50 [3, 5]: ~3 nM; IC50 [3, 7]: 0.9 nM
COc1c(Nc2nccc(-c3cnc4c(c3)C(C)(C)CN4)n2)cccc1C(=O)NC1CCOCC1 [Compound 113]	288 nM	–	–
COc1cc(N2CCN(C)CC2)c(Cl)cc1Nc1nccc(-c2cnc3c(c2)C(C)(CO)CN3)n1 (centres unmarked) [Compound 267]	–	–	IC50 [2, 6]: 28.8 nM; IC50 [3, 5]: 4.7 nM; IC50 [3, 7]: 0.5 nM
COc1ccc(C)c(Nc2nccc(-c3cnc4c(c3)C(C)(C)CN4)n2)c1CNC(C)=O [Compound 135]	> 10000 nM	–	–
CC1(CO)CNc2ncc(-c3ccnc(Nc4ccc(C(=O)NC5CCOCC5)cc4OC(F)F)n3)cc21 (centres unmarked) [Compound 140]	–	1070 nM	IC50 [3, 7]: 4.5 nM
COc1c(Nc2nccc(-c3cnc4c(c3)C(C)(C)CN4)n2)cccc1C(=O)N1CCOCC1 [Compound 112]	417 nM	–	–
COc1cc(CNC(C)=O)ccc1Nc1nccc(-c2cnc3c(c2)C(C)(CO)CN3)n1 (centres unmarked) [Compound 145]	–	324 nM	IC50 [3, 7]: 7.2 nM
